From the supplement of paper PMC11208160 come the findings set out here.
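Further: IS621 bridge recombinase in Escherichia coli cells against a fixed T5 target plasmid.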

The data set is described as follows: recombinant UMI read abundance after kanamycin selection (control-corrected) (log10(CPM+1)); higher = more efficient recombination; extreme values may be limits of the assay; sequences stand for … in AGTGCAGAGAAAATCGGCCAGTTTTCTCTGCCTGCAGTCCGCATGCCGTGGGACCCCTTGGGTTCTAACCTGTTGCCTAGATTTATGCAGCGGACTGCCTTTCTCCCAAAGTGATAAACCGG…AGGTTGGTTTCACT; site = the 11-nt donor. Put shortly:
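Counts of recombinant UMIs were reported as log10(CPM+1). Before that, they were converted to CPM, averaged over replicates and scaled using control-derived factors. They came from PCR across the donor–target junction after Escherichia coli carrying the pair library and target plasmid was plated on IPTG (0.07 mM) plus kanamycin, or unselected, in two replicates each.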
As for “CCTACGCCATGGACCGGTTTTCCCGGTAATCCGTATTTGAA (site CCTACGCCTTT)”, the “recombinant UMI read abundance (log10)” value was determined as 0.0231.
Then “CCTACTGCATGGACCGGTTTTCCCGGTAATCCGTATTTGCC (site ACTACTGCTGG)”, with 0; and “CCTACTGCATGGACCGGTTTTCCCGGTAATCCGTATTTGCC (site CCTACTGCTGG)”, with 0.191.
On to “CCTACTGCATGGACCGGTTTTCCCGGTAATCCGTATTTGCC (site GCTACTGCTGG)”, for which the “recombinant UMI read abundance (log10)” value turned out to be 0.
Under “CCTACTGCATGGACCGGTTTTCCCGGTAATCCGTATTTGCC (site TCTACTGCTGG)” stands 0; under “CCTCAAGCATGGACCGGTTTTCCCGGTAATCCGTATTTGAT (site CCTAAAGCTAT)”, 0.
For “CCTCAAGCATGGACCGGTTTTCCCGGTAATCCGTATTTGAT (site CCTCAAGCTAT)”, the “recombinant UMI read abundance (log10)” value was determined as 0.0413.
Under “CCTCAAGCATGGACCGGTTTTCCCGGTAATCCGTATTTGAT (site CCTGAAGCTAT)” stands 0.00432; under “CCTCAAGCATGGACCGGTTTTCCCGGTAATCCGTATTTGAT (site CCTTAAGCTAT)”, 0; under “CCTCACTCATGGACCGGTTTTCCCGGTAATCCGTATTTGCT (site CCTCACTCTAG)”, 0.747.
As to “CCTCCGGCATGGACCGGTTTTCCCGGTAATCCGTATTTGGT (site CCTCCGGCTAC)”, the “recombinant UMI read abundance (log10)” value turned out to be 0.0132.
Then “CCTCGATCATGGACCGGTTTTCCCGGTAATCCGTATTTGGC (site CCTCGATCTGC)”, with 0.
Regarding “CCTCGGACATGGACCGGTTTTCCCGGTAATCCGTATTTGGT (site CCTCGGACTAC)”, the “recombinant UMI read abundance (log10)” value is 0.013.
As for “CCTCGTACATGGACCGGTTTTCCCGGTAATCCGTATTTGAG (site CCTCGTACTCT)”, the “recombinant UMI read abundance (log10)” value is 0.0191.
Then “CCTGCAGCATGGACCGGTTTTCCCGGTAATCCGTATTTGGC (site CCTGCAGCTGC)”, with 0.
Under “CCTGGTTCATGGACCGGTTTTCCCGGTAATCCGTATTTGAC (site CCTGGTTCTGT)” stands 0; under “CCTGTCGCATGGACCGGTTTTCCCGGTAATCCGTATTTGAA (site CCTGTCGCTTT)”, 0.0175; under “CCTGTCGCATGGACCGGTTTTCCCGGTAATCCGTATTTGAC (site CCTGTCGCTGT)”, 0.
Under “CCTTAACCATGGACCGGTTTTCCCGGTAATCCGTATTTGCT (site CCTTAACCTAG)” stands 0; under “CCTTACGCATGGACCGGTTTTCCCGGTAATCCGTATTTGGC (site CCTTACGCTGC)”, 0; under “CCTTATACATGGACCGGTTTTCCCGGTAATCCGTATTTGGG (site CCTTATACTCC)”, 0.016.
Take “CCTTATACATGGACCGGTTTTCCCGGTAATCCGTATTTGGT (site CCTTATACTAC)”: the “recombinant UMI read abundance (log10)” value is 0.00722.
Take “CCTTCTGCATGGACCGGTTTTCCCGGTAATCCGTATTTGGA (site CCTTCTGCTTC)”: the “recombinant UMI read abundance (log10)” value is 0.00377.
Then “CCTTTCGCATGGACCGGTTTTCCCGGTAATCCGTATTTGAT (site CCTTTCGCTAT)”, with 0.0105.
Turning to “CCTTTCTCATGGACCGGTTTTCCCGGTAATCCGTATTTGGG (site CCATTCTCTCC)”, the “recombinant UMI read abundance (log10)” value was determined as 0.00388.
Under “CCTTTCTCATGGACCGGTTTTCCCGGTAATCCGTATTTGGG (site CCCTTCTCTCC)” stands 0.0264.
Under “CCTTTCTCATGGACCGGTTTTCCCGGTAATCCGTATTTGGG (site CCGTTCTCTCC)” stands 0.011; under “CCTTTCTCATGGACCGGTTTTCCCGGTAATCCGTATTTGGG (site CCTTTCTCTCC)”, 0; under “CCTTTGGCATGGACCGGTTTTCCCGGTAATCCGTATTTGCT (site CATTTGGCTAG)”, 0.00684.
“CCTTTGGCATGGACCGGTTTTCCCGGTAATCCGTATTTGCT (site CCTTTGGCTAG)”: the “recombinant UMI read abundance (log10)” value was 0.00901.
With “CCTTTGGCATGGACCGGTTTTCCCGGTAATCCGTATTTGCT (site CGTTTGGCTAG)”, the “recombinant UMI read abundance (log10)” value was 0.
Then “CCTTTGGCATGGACCGGTTTTCCCGGTAATCCGTATTTGCT (site CTTTTGGCTAG)”, with 0.00684; and “CGAAAACCATGGACCGGTTTTCCCGGTAATCCGTATTTGTT (site CGAAAACCTAA)”, with 0; and “CGAAAACCATGGACCGGTTTTCCCGGTAATCCGTATTTGTT (site CGGAATCCTAA)”, with 0.
Regarding “CGAACATCATGGACCGGTTTTCCCGGTAATCCGTATTTGAT (site CGAACATCTAT)”, the “recombinant UMI read abundance (log10)” value is 1.63.
Under “CGAACATCATGGACCGGTTTTCCCGGTAATCCGTATTTGAT (site CGATCATCTAG)” stands 0; under “CGAAGTGCATGGACCGGTTTTCCCGGTAATCCGTATTTGGG (site CGAAGTGCTCC)”, 0.671; under “CGAATGCCATGGACCGGTTTTCCCGGTAATCCGTATTTGAC (site CGAATGCCTGT)”, 0.465.
Take “CGACCATCATGGACCGGTTTTCCCGGTAATCCGTATTTGCT (site CGAACATCTAG)”: the “recombinant UMI read abundance (log10)” value stood at 1.13.
As for “CGACCATCATGGACCGGTTTTCCCGGTAATCCGTATTTGCT (site CGACCATCTAG)”, the “recombinant UMI read abundance (log10)” value came out at 2.13.
Then “CGACCATCATGGACCGGTTTTCCCGGTAATCCGTATTTGCT (site CGAGCATCTAG)”, with 0.
Then “CGACCATCATGGACCGGTTTTCCCGGTAATCCGTATTTGCT (site CGATCATCTAG)”, with 0; and “CGACGCGCATGGACCGGTTTTCCCGGTAATCCGTATTTGGG (site CGACGCGCTCC)”, with 0.672; and “CGACTATCATGGACCGGTTTTCCCGGTAATCCGTATTTGTG (site CGACTATCTCA)”, with 3.11.
On to “CGACTCTCATGGACCGGTTTTCCCGGTAATCCGTATTTGAC (site CGACTCTCTGT)”, for which the “recombinant UMI read abundance (log10)” value came out at 2.88.
Under “CGAGAACCATGGACCGGTTTTCCCGGTAATCCGTATTTGAT (site CGAGAACCTAT)” stands 0; under “CGAGAACCATGGACCGGTTTTCCCGGTAATCCGTATTTGAT (site CGCGAACCTAT)”, 0; under “CGAGAACCATGGACCGGTTTTCCCGGTAATCCGTATTTGAT (site CGGGAACCTAT)”, 0.
Under “CGAGAACCATGGACCGGTTTTCCCGGTAATCCGTATTTGAT (site CGTGAACCTAT)” stands 0; under “CGAGCACCATGGACCGGTTTTCCCGGTAATCCGTATTTGCT (site CGAGCACCTAG)”, 0.
Then “CGAGCGACATGGACCGGTTTTCCCGGTAATCCGTATTTGTT (site CGAACGACTAA)”, with 0.607.
Turning to “CGAGCGACATGGACCGGTTTTCCCGGTAATCCGTATTTGTT (site CGACCGACTAA)”, the “recombinant UMI read abundance (log10)” value came out at 0.0145.
On to “CGAGCGACATGGACCGGTTTTCCCGGTAATCCGTATTTGTT (site CGAGCGACTAA)”, for which the “recombinant UMI read abundance (log10)” value was found to be 1.49.
Then “CGAGCGACATGGACCGGTTTTCCCGGTAATCCGTATTTGTT (site CGATCGACTAA)”, with 0.0192; and “CGAGCGCCATGGACCGGTTTTCCCGGTAATCCGTATTTGTG (site CAAGCGCCTCA)”, with 0.0595.
In the case of “CGAGCGCCATGGACCGGTTTTCCCGGTAATCCGTATTTGTG (site CCAGCGCCTCA)”, the “recombinant UMI read abundance (log10)” value was found to be 0.0345.
For “CGAGCGCCATGGACCGGTTTTCCCGGTAATCCGTATTTGTG (site CGAGCGCCTCA)”, the “recombinant UMI read abundance (log10)” value was determined as 0.219.
On to “CGAGCGCCATGGACCGGTTTTCCCGGTAATCCGTATTTGTG (site CTAGCGCCTCA)”, for which the “recombinant UMI read abundance (log10)” value came to 0.0326.
Then “CGAGGAACATGGACCGGTTTTCCCGGTAATCCGTATTTGGG (site CGAGGAACTCC)”, with 1.53; and “CGAGGAACATGGACCGGTTTTCCCGGTAATCCGTATTTGGG (site CGAGGACCTCC)”, with 0.0124; and “CGAGGAACATGGACCGGTTTTCCCGGTAATCCGTATTTGGG (site CGAGGAGCTCC)”, with 0.376.
For the sequence “CGAGGAACATGGACCGGTTTTCCCGGTAATCCGTATTTGGG (site CGAGGATCTCC)”, the “recombinant UMI read abundance (log10)” value is 1.59.
Under “CGAGGAACATGGACCGGTTTTCCCGGTAATCCGTATTTGTT (site CGAGGAACTAA)” stands 2.78; under “CGAGGAACATGGACCGGTTTTCCCGGTAATCCGTATTTGTT (site CGCGGAACTAA)”, 0.0367.
Then “CGAGGAACATGGACCGGTTTTCCCGGTAATCCGTATTTGTT (site CGGGGAACTAA)”, with 0.474; and “CGAGGAACATGGACCGGTTTTCCCGGTAATCCGTATTTGTT (site CGTGGAACTAA)”, with 1.82.
For “CGAGGACCATGGACCGGTTTTCCCGGTAATCCGTATTTGGG (site AGAGGACCTCC)”, the “recombinant UMI read abundance (log10)” value turned out to be 0.00643.
Under “CGAGGACCATGGACCGGTTTTCCCGGTAATCCGTATTTGGG (site CAAGGACCTCC)” stands 0.019.
